Literature values, collected in paper PMC4552746, “Conformational Properties of Seven Toac-Labeled Angiotensin I Analogues Correlate with Their Muscle Contraction Activity and Their Ability to Act as ACE Substrates” (PLoS ONE, 2015).

Test system: thoracic rabbit aorta strips
Parameters: method as in earlier work
Details: ref 48 (Cordopatis and Theodoropoulos)

[1-Aib]-angiotensin II [Aib^1-AngII]
Potency, in words: displays high potency
